Entries after “also recorded” stand apart in the source; their conditions may differ.
Assays:
[1] = test system: MMP activity in HUVEC cells; test: Matrix metalloproteinase (MMP) assay by zymography, HUVEC cells; format: cell-based, human; settings: FIG. 17 right
Description: (§1) MMP activity in PC-3 and HUVEC cells were carried out by zymography (J Vis Exp, e2445). […] After that, the gels were incubated at renaturing buffer for 30 min, followed with incubation at zymography developing buffer for 30 min at room temperature, and replaced with fresh developing buffer and incubated at 37° C. overnight. The gels were stained by Coomassie blue, and images were recorded and analyzed by NIH Image J software.

[2] = test system: mouse aortic ring vessel sprouting; test: Mouse aortic ring assay; format: cell-based; settings: FIG. 13
Description: Mouse aorta ring assay was carried out using a slightly modified method described by Bellacen and Lewis (J Vis Exp, e1564). The 48-well plates were coated with 50 μL per well growth-factor reduced Matrigel at 37° C. for 30 min. The aorta of C57BL/6 mice was harvested, washed with cold serum-free F-12K medium 5-6 times, and cut to ˜1 mm length pieces. The aorta ring was put in the center area of Matrigel-coated 48-well plates, then another 100 μL Matrigel was added into each well and incubated at 37° C. for another 30 min. Complete endothelial EGM-2 culture medium (500 μL per well) with or without test compounds was added into each well, incubated in 37° C. incubators for 6-12 days, microscope image was recorded and analyzed by NIH Image J software.

[3] = Pharmacokinetics in mice by oral cassette dosing; format: in vivo; settings: oral cassette dosing at 5 mg/kg, blood
Description: All the animal experiments were performed according to protocols approved by the Animal Use and Care Committee of University of California, Davis. […] Each cassette was orally administered to 4 mice at a dose of 5 mg/kg in 120-150 μl of vehicle depending on animal weight. […] The instrument was equipped with a linear ion trap and a Turbo V ion source and was operated in negative ion MRM mode. […] This was maintained for 3 min, then the gradient was returned to 30% solvent B in 2 min. The flow rate was 0.4 mL/min. The injection volume was 10 μL and the samples were kept at 4° C. in the auto sampler.

[4] = test system: MMP activity in PC-3 cells; test: Matrix metalloproteinase (MMP) assay by zymography, PC-3 cells; format: cell-based; settings: FIG. 17 left
Description: as §1

5-LOX = biological target: T1, 5-LOX (Homo sapiens, UniProt P09917); test: Potency against 5-LOX; format: biochemical; settings: compared with celecoxib
T1 sequence (P09917 1-674): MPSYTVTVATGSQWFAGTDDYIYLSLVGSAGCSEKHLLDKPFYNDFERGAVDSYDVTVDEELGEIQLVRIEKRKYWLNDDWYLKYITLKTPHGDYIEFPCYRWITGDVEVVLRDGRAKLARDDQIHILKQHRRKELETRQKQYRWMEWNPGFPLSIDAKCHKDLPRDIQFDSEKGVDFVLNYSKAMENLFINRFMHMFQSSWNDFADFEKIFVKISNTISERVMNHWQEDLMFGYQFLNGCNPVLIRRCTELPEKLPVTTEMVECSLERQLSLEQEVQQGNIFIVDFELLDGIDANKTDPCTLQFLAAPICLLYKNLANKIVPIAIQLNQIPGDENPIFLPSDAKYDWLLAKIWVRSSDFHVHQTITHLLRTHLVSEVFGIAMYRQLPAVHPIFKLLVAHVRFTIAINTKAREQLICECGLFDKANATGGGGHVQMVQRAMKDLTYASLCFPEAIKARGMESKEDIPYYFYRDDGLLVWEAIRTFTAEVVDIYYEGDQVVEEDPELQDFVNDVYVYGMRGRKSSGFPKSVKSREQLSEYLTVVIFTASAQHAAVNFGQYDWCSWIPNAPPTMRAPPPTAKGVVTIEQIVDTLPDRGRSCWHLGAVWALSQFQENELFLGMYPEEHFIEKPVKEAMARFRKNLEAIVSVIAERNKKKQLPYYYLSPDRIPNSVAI

LPS induced allodynia = test: Von Frey mechanical nociceptive assay, LPS induced model of inflammatory pain; format: in vivo; settings: male SD rats, 10 mg/kg s.c. 60 minutes before intraplantar LPS, tested until 6 hours post LPS
Description: In vivo anti-allodynic effects of the COX-2/sEH dual inhibitors provided herein was assayed. An LPS induced model of inflammatory pain was used to compare the pain reducing activity of the COX-2/sEH dual inhibitors to combination and individual therapies.
Rats weighing approximately 250-300 grams are brought to the testing apparatus and allowed to acclimate for 30 minutes. After 30 minutes the rats are tested with a von Frey aesthesiometer for their non-treated baseline withdrawal latency to mechanical stimulation. The von Frey apparatus is a raised metal mesh platform that has clear acrylic chambers to enclose rats but allow them to move freely. A rigid tip von Frey probe is used to probe the plantar surface of the rat hind paw though the mesh floor to elicit a withdrawal response. The measures recorded are grams of force applied to the hind paw required to elicit a withdrawal. The pretreatment baseline score is considered the pain-free baseline (BL) and is assigned 100% for further response calculations. […] The measures are then calculated as a percent of the pretreatment baseline score.

[5] = Pharmacokinetics in rats by oral administration
HUVEC cells = test: HUVEC endothelial tube formation assay; format: cell-based, human; settings: treated for 4-6 hours, FIG. 12
Description: Endothelial tube formation assay was carried out using a slightly modified method described by Arnaoutova and Kleinman (Nat. Protocols 5, 628-635). Briefly, 96-well plates were coated with growth-factor reduced Matrigel (50 μL per well, BD Biosciences, San Jose, Calif.) at 37° C. for 30 min. HUVEC cells were seeded into the 96-well plates at 2×10^4 cells per well in 100 μL serum-free F-12K medium with or without test compounds and incubated for 6 h 37° C. in the incubator. Microscope image was recorded and analyzed by NIH Image J software.

[6] = test system: cancer cells (H-1, PC-3, A375, Met-1); test: Cancer cell proliferation assay (MTT); format: cell-based; settings: times higher than in endothelial cells, FIG. 14
Description: Cells (HUVEC, H-1, PC-3, A375, Met-1) were seeded into 96-well plates at 1.0-1.5×10^3 cells per well in 100 μL complete medium. After 24 h, the medium was replaced with fresh complete medium containing test compounds and the cells were incubated for another 72 hours. Cell viability was assessed by MTT assay (Sigma-Aldrich).

[7] = 21i in comparison with 21j, rats oral 1 mg/kg
[8] = rats, oral administration at 1 mg/kg (n = 4), blood

NS(=O)(=O)c1ccc(-n2nc(CCCNC(=O)Nc3ccc(C(F)(F)F)cc3)cc2-c2ccccc2)cc1 [Compound 21i, 4-(5-Phenyl-3-{3-[3-(4-trifluoromethyl-phenyl)-ureido]-propyl}-pyrazol-1-yl)-benzenesulfonamide]
MMP activity, in words [1]: no effect on MMP activity | Vessel sprouting in mouse aortic ring assay, in words [2]: inhibited vessel sprouting in mouse aortic ring assay in a dose-dependent manner | AUC [3]: 0.98 µM·h | Cmax [3]: 260 nM | Tmax [3]: 0.8 h | t1/2 [3]: 2.6 h | MMP activity, in words [4]: no effect on MMP activity | Potency against 5-LOX, in words (5-LOX): comparable with celecoxib | Anti-allodynic effect, von Frey paw withdrawal, in words (LPS induced allodynia): better in vivo efficacy in a pain model in rats compared to celecoxib and t-AUCB combination therapy; also recorded: superior effect compared to the combination therapies; also recorded: superior anti-allodynic activity; also recorded: more efficient than the combination of celecoxib with t-AUCB | Higher AUC in rats [5, 7]: 2 fold | Higher Cmax in rats [5, 7]: 2 fold | AUC [5, 8]: 2.764 ± 0.804 µM·h | Cmax [5, 8]: 415 ± 139 nM | Tmax [5, 8]: 1.5 ± 0.6 h | t1/2 [5, 8]: 12.9 ± 3.8 h | HUVEC tube formation, in words (HUVEC cells): inhibits endothelial proliferation assay of HUVEC cells | IC50 in cancer cells relative to endothelial cells [6]: 5-10 times

From patent US9096532B2, “Pyrazole inhibitors of COX-2 and sEH” (The Regents of the University of California, priority 2010, dated 2015)
